Read-outs that look alike come from different tables or passages of the source.
How the values were obtained:
[1] = test system: influenza A virus (A/PR/8/34); assay: MDCK cytopathic effect (CPE) cell protection assay, ATP detection; type: cell-based
[2] = test system: influenza A virus (A/PR/8/34); assay: microbe, parasite or virus in culture; type: cell-based
[3] = Influenza A virus, PR/8, MDCK, 72 h, Table 1, MDCK cells, A/PR/8/34, 72 hours, 50% cell protection, mean all, class symbol, read-out: MDCK IC50
[4] = Influenza A virus, PR/8, Table 1, mean all, class symbol, read-out: bDNA EC99
[5] = Influenza A virus, PR/8, Table 1, viral RNA 50% of control wells, mean all, class symbol, read-out: bDNA EC50
[6] = Table 1, MDCK cells, A/PR/8/34, 72 hours, 50% cell protection, mean all, class symbol, read-out: MDCK IC50
[7] = Table 1, mean all, class symbol
[8] = Table 1, viral RNA 50% of control wells, mean all, class symbol, read-out: bDNA EC50
[9] = Influenza A virus, PR/8, MDCK, exemplary data, MDCK cell protection, read-out: IC50
[10] = Influenza A virus, PR/8, exemplary data, bDNA, read-out: EC50

Row | Compound | IC50 [1, 3] [µM] | EC99 [2, 4] [µM] | EC50 [2, 5] [µM] | other results
1 | CC(C)(C)[C@@H](CS(=O)(=O)O)Nc1nc(-c2c[nH]c3ncc(Cl)cc23)ncc1F [Compound 10, (S)-2-((2-(5-chloro-1H-pyrrolo[2,3-b]pyridin-3-yl)-5-fluoropyrimidin-4-yl)amino)-3,3-dimethylbutane-1-sulfonic acid] | < 0.3 | < 0.3 | < 0.3 | 
2 | CC(C)NS(=O)(=O)C[C@@H](Nc1nc(-c2c[nH]c3ncc(F)cc23)ncc1F)C(C)(C)C [Compound 39] | < 0.3 | 0.3 to 3.3 | < 0.3 | 
3 | O=C(O)CC(Nc1nc(-c2c[nH]c3ncc(F)cc23)ncc1F)C1(C(F)(F)F)CC1 (racemic) [Compound 93, (+/−)-3-((5-Fluoro-2-(5-fluoro-1H-pyrrolo[2,3-b]pyridin-3-yl)pyrimidin-4-yl)amino)-3-(1-(trifluoromethyl)cyclopropyl)propanoic acid] | 0.3 to 3.3 | > 3.3 | 0.3 to 3.3 | 
4 | CC(C)(C)[C@@H](CS(=O)(=O)NCC(F)F)Nc1nc(-c2c[nH]c3ncc(F)cc23)ncc1F [Compound 57, (S)—N-(2,2-difluoroethyl)-2-(5-fluoro-2-(5-fluoro-H-pyrrolo[2,3-b]pyridin-3-yl)pyrimidin-4-ylamino)-3,3-dimethylbutane-1-sulfonamide] | < 0.3 | < 0.3 | < 0.3 | 
5 | O=C(O)CC(Nc1nc(-c2c[nH]c3ncc(F)cc23)ncc1F)C1(C(F)(F)F)CCCC1 (racemic) [Compound 75, (+/−)-3-(5-fluoro-2-(5-fluoro-1H-pyrrolo[2,3-b]pyridin-3-yl)pyrimidin-4-ylamino)-3-(1-(trifluoromethyl)cyclopentyl)propanoic acid] | > 3.3 | > 3.3 | 0.3 to 3.3 | 
6 | CC1([C@@H](CC(=O)O)Nc2nc(-c3c[nH]c4ncc(F)cc34)ncc2F)CCCC1 [Compound 14] | < 0.3 | < 0.3 | < 0.3 | 
7 | CC(C)(C)C(Cc1cc(O)no1)Nc1nc(-c2c[nH]c3ncc(F)cc23)ncc1F (racemic) [Compound 62, (+/−)-5-(2-((5-fluoro-2-(5-fluoro-1H-pyrrolo[2,3-b]pyridin-3-yl)pyrimidin-4-yl)amino)-3,3-dimethylbutyl)isoxazol-3-ol] | < 0.3 | 0.3 to 3.3 | 0.3 to 3.3 | 
8 | CC(C)(C)[C@@H](/C=C/C(=O)O)Nc1nc(-c2c[nH]c3ncc(F)cc23)ncc1F [Compound 59, (R,E)-4-((5-fluoro-2-(5-fluoro-1H-pyrrolo[2,3-b]pyridin-3-yl)pyrimidin-4-yl)amino)-5,5-dimethylhex-2-enoic acid] | < 0.3 | 0.3 to 3.3 | < 0.3 | 
9 | CC(C)(C)[C@@H](CS(N)(=O)=O)Nc1nc(-c2c[nH]c3ncc(F)cc23)ncc1F [Compound 22, (S)-2-(5-fluoro-2-(5-fluoro-1H-pyrrolo[2,3-b]pyridin-3-yl)pyrimidin-4-ylamino)-3,3-dimethylbutane-1-sulfonamide] | < 0.3 | 0.3 to 3.3 | < 0.3 | 
10 | CCOC(=O)CC(Nc1nc(-c2c[nH]c3ncc(Cl)cc23)ncc1F)C1(C)CCCCC1 (centres unmarked) [Compound 82] | > 3.3 | > 3.3 | > 3.3 | 
11 | CC1([C@@H](CC(=O)O)Nc2nc(-c3c[nH]c4ncc(F)cc34)ncc2F)CC1 [Compound 92] |  |  |  | IC50 [1, 6]: 0.3 to 3.3 µM; bDNA EC99 (uM) [2, 7]: C (EC99 (mean all)>3.3 μM); EC50 [2, 8]: 0.3 to 3.3 µM
12 | CNC(=O)[C@H](C)Nc1nc(-c2c[nH]c3ncc(Cl)cc23)ncc1F [Compound C3, reference compound] |  |  |  | IC50 ([1]; Influenza A virus, PR/8, MDCK, Table 2, class symbol in brackets, read-out: MDCK cell IC50 (uM), class): > 3.3 µM; IC50 ([1]; Influenza A virus, PR/8, MDCK, Table 2, comparison compounds of WO2005/095400, mean value, read-out: MDCK cell IC50): > 20 µM; EC50 ([2]; Influenza A virus, PR/8, Table 2, class symbol in brackets, read-out: bDNA EC50 (uM), class): > 3.3 µM; EC50 ([2]; Influenza A virus, PR/8, Table 2, comparison compounds of WO2005/095400, mean value, read-out: bDNA EC50): 3.38 µM; bDNA EC99 (uM), class ([2]; Table 2, class symbol in brackets): C (EC99 (mean all)>3.3 μM); bDNA EC99 ([2]; Table 2, comparison compounds of WO2005/095400, mean value): 9.37 µM
13 | O=C(O)CC(Nc1nc(-c2c[nH]c3ncc(Cl)cc23)ncc1F)C12CC3CC(CC(C3)C1)C2 (racemic) [Compound 94, (+/−)-3-(1-Adamantyl)-3-[[2-(5-chloro-1H-pyrrolo[2,3-b]pyridin-3-yl)-5-fluoro-pyrimidin-4-yl]amino]propanoic acid] | < 0.3 | < 0.3 | < 0.3 | 
14 | CC(C)(C)N(CC(=O)O)Nc1nc(-c2c[nH]c3ncc(Cl)cc23)ncc1F [Compound 56, 2-(1-(tert-butyl)-2-(2-(5-chloro-1H-pyrrolo[2,3-b]pyridin-3-yl)-5-fluoropyrimidin-4-yl)hydrazinyl)acetic acid] | < 0.3 | < 0.3 | < 0.3 | 
15 | CC1([C@@H](CC(=O)O)Nc2nc(-c3c[nH]c4ncc(F)cc34)ncc2F)CC1 [Compound 91, (R)-3-((5-fluoro-2-(5-fluoro-1H-pyrrolo[2,3-b]pyridin-3-yl)pyrimidin-4-yl)amino)-3-(1-methylcyclopropyl)propanoic acid] | < 0.3 |  | < 0.3 | bDNA EC99 (uM) [2, 7]: B (0.3 μM≤EC99 (mean all)≤3.3 μM)
16 | CC(C)(C)C(Nc1nc(-c2c[nH]c3ncc(F)cc23)ncc1F)C1CC1C(=O)O (single isomer, unassigned) [Compound 52, 2-(1-((5-fluoro-2-(5-fluoro-1H-pyrrolo[2,3-b]pyridin-3-yl)pyrimidin-4-yl)amino)-2,2-dimethylpropyl)cyclopropanecarboxylic acid] |  |  |  | IC50 [1, 6]: < 0.3 µM; bDNA EC99 (uM) [2, 7]: B (0.3 μM≤EC99 (mean all)≤3.3 μM); EC50 [2, 8]: < 0.3 µM
17 | CCOC(=O)CC[C@@H](Nc1nc(-c2c[nH]c3ncc(F)cc23)ncc1F)C(C)(C)C [Compound 23, (R)-ethyl 4-((5-fluoro-2-(5-fluoro-1H-pyrrolo[2,3-b]pyridin-3-yl)pyrimidin-4-yl)amino)-5,5-dimethylhexanoate] | 0.3 to 3.3 | > 3.3 | 0.3 to 3.3 | 
18 | CC(C)(C)[C@@H](CC(O)C(F)(F)F)Nc1nc(-c2c[nH]c3ncc(F)cc23)ncc1F (stereo partly drawn) [Compound 66, (4R)-1,1,1-trifluoro-4-((5-fluoro-2-(5-fluoro-1H-pyrrolo[2,3-b]pyridin-3-yl)pyrimidin-4-yl)amino)-5,5-dimethylhexan-2-ol] | < 0.3 | 0.3 to 3.3 | < 0.3 | 
19 | CNS(=O)(=O)C[C@@H](Nc1nc(-c2c[nH]c3ncc(F)cc23)ncc1F)C(C)(C)C [Compound 19, (S)-2-(5-fluoro-2-(5-fluoro-1H-pyrrolo[2,3-b]pyridin-3-yl)pyrimidin-4ylamino)-N,3,3-trimethylbutane-1-sulfonamide] | < 0.3 | < 0.3 | < 0.3 | 
20 | CC(C)(C)[C@H](CC(=O)O)Nc1nc(-c2c[nH]c3ncc(F)cc23)ncc1F [Compound 4, (S)-3-((5-fluoro-2-(5-fluoro-1H-pyrrolo[2,3-b]pyridin-3-yl)pyrimidin-4-yl)amino)-4,4-dimethylpentanoic acid] | > 3.3 | > 3.3 | > 3.3 | 
21 | O=C(O)CC(Nc1nc(-c2c[nH]c3ncc(F)cc23)ncc1F)C1CCC1 (racemic) [Compound 44, (+/−)-3-cyclobutyl-3-((5-fluoro-2-(5-fluoro-1H-pyrrolo[2,3-b]pyridin-3-yl)pyrimidin-4-yl)amino)propanoic acid] | < 0.3 | 0.3 to 3.3 | 0.3 to 3.3 | 
22 | CC(O)C[C@@H](Nc1nc(-c2c[nH]c3ncc(F)cc23)ncc1F)C(C)(C)C (stereo partly drawn) [Compound 73, (4R)-4-((5-Fluoro-2-(5-fluoro-1H-pyrrolo[2,3-b]pyridin-3-yl)pyrimidin-4-yl)amino)-5,5-dimethylhexan-2-ol] | > 3.3 |  | 0.3 to 3.3 | 
23 | CC(C)(C)[C@@H](CCP(=O)(O)O)Nc1nc(-c2c[nH]c3ncc(F)cc23)ncc1F [Compound 69, (R)-(3-((5-fluoro-2-(5-fluoro-1H-pyrrolo[2,3-b]pyridin-3-yl)pyrimidin-4-yl)amino)-4,4-dimethylpentyl)phosphonic acid] | 0.3 to 3.3 | > 3.3 | 0.3 to 3.3 | IC50 [1, 9]: 2.31 µM; EC50 [2, 10]: 0.8 µM; EC99 ([2]; exemplary data, bDNA): 8.4 µM
24 | CC1(C(CC(=O)O)Nc2nc(-c3c[nH]c4ncc(F)cc34)ncc2F)CC1 (centres unmarked) [Compound 74] | 0.3 to 3.3 | 0.3 to 3.3 | 0.3 to 3.3 | 
25 | CC(C)(C)[C@@H](CS(=O)(=O)O)Nc1nc(-c2c[nH]c3ncc(F)cc23)ncc1F [Compound 11, (S)-2-(5-fluoro-2-(5-fluoro-1H-pyrrolo[2,3-b]pyridin-3-yl)pyrimidin-4-ylamino)-3,3-dimethylbutane-1-sulfonic acid] | < 0.3 | < 0.3 | < 0.3 | 
26 | CC(C)(C)[C@@H](CS(=O)(=O)CC(=O)O)Nc1nc(-c2c[nH]c3ncc(Cl)cc23)ncc1F [Compound 61, (S)-2-(2-(2-(5-chloro-1H-pyrrolo[2,3-b]pyridin-3-yl)-5-fluoropyrimidin-4-ylamino)-3,3-dimethylbutylsulfonyl)ethanoic acid] | < 0.3 | 0.3 to 3.3 | < 0.3 | 
27 | CC(C)(CF)C(CC(=O)O)Nc1nc(-c2c[nH]c3ncc(F)cc23)ncc1F (racemic) [Compound 76, (+/−)-5-Fluoro-3-((5-fluoro-2-(5-fluoro-1H-pyrrolo[2,3-b]pyridin-3-yl)pyrimidin-4-yl)amino)-4,4-dimethylpentanoic acid] | 0.3 to 3.3 | 0.3 to 3.3 | < 0.3 | IC50 [1, 9]: 0.423 µM; EC50 [2, 10]: 0.25 µM; EC99 ([2]; exemplary data, bDNA): 1.4 µM

Reference: patent US10875855B2 (priority 2011, dated 2020)
